Experimental data taken from US20190269703A1, “MATERIALS AND METHODS FOR TREATING CHRONIC COUGH” (Mayo Foundation for Medical Education and Research, priority 2016, published 2019).

Experiments:
postnasal drip = assay: Treatment of postnasal drip: nasal spray delivered into the nasal cavity, patient responses evaluated; format: in vivo, human; details: 34 μg/spray diphenhydramine in combination with an anticholinergic and a glucocorticosteroid (mometasone furoate 1.7 mg/5 mL, ipratropium bromide 1 mg/5 mL, diphenhydramine 1.7 mg/5 mL); two sprays to each nostril daily; evaluated after 4 to 6 weeks
Procedure: A composition including mometasone furoate (1.7 mg/5 mL), ipratropium bromide (1 mg/5 mL), and diphenhydramine (1.7 mg/5 mL) was prepared. A specially configured nasal atomizer having a large aerosol plume and a three inch stem was used to bypass the nasal valve area and deliver medication into the nasal cavity. Two sprays were administered to each nostril daily. Patient responses were evaluated after 4 to 6 weeks.

[1] = Sedation / patient tolerance of the nasal spray in use; format: in vivo, human; details: 34 micrograms/spray (or 69 μg daily) to each nostril, triple combination nasal spray; 15,000 units dispensed
Procedure: A specially configured nasal atomizer having a large aerosol plume and a three inch stem was used to bypass the nasal valve area and deliver medication into the nasal cavity. Two sprays were administered to each nostril daily. Patient responses were evaluated after 4 to 6 weeks.
34 micrograms/spray (or 69 μg daily) to each nostril is […] less than the lowest dose (12.5 milligrams) of oral diphenhydramine.

With `CN(C)CCOC(c1ccccc1)c1ccccc1` [Diphenhydramine, diphenhydramine] the arresting postnasal drip (postnasal drip) was “effective” and the sedation [1] was “sedation has not been an issue”.
